What was measured:
[1] = target: T1, Serotonin 3 (5-HT3) receptor (Rattus norvegicus, UniProt P35563+Q9JJ16); assay: (§1) Compound was tested for its binding affinity for the 5-hydroxytryptamine 3 receptor; format: protein-complex assay
T1 sequence (P35563 whole entry): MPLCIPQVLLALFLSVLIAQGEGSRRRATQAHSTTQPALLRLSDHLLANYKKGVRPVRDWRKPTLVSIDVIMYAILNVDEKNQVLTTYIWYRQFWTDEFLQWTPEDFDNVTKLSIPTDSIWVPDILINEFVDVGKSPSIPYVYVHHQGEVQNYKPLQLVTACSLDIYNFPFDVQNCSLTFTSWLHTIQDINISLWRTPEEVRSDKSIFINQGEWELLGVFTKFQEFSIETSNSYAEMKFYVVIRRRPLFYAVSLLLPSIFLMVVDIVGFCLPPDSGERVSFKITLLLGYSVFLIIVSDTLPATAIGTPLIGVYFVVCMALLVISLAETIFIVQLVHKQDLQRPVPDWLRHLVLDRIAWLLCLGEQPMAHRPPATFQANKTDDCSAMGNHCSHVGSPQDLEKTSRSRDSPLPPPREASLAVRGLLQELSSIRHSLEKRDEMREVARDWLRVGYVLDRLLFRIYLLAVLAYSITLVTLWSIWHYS
T1 sequence (Q9JJ16 whole entry): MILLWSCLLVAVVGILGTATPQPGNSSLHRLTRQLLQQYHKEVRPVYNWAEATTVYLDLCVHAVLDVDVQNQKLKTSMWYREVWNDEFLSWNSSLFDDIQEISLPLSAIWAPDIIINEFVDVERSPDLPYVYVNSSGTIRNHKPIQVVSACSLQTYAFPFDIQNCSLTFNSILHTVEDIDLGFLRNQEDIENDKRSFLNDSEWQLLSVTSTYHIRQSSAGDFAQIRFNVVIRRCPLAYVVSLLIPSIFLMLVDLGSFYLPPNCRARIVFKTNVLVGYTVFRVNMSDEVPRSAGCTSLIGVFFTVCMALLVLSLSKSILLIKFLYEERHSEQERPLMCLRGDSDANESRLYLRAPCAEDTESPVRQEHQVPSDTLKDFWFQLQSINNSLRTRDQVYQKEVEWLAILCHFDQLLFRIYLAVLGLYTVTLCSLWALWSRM

D(2) dopamine receptor [2] = target: T2, D(2) dopamine receptor (Homo sapiens, UniProt P14416); assay: Compound was selective with respect to binding at the Dopamine receptor D2
Mus musculus = assay: Compound was tested for inhibition of serotonin 5-HT3 receptor mediated bradycardia in Bezold-Jarisch reflex model in mice at 1 mg/kg after intraperitoneal administration; format: functional; conditions: ip
[3] = target: 5-hydroxytryptamine receptor 4 (Rattus norvegicus, UniProt Q62758); assay: Agonist activity against serotonin 5-HT4 receptor in rat tunica muscularis mucosae assay; format: functional
[4] = Compound was tested for inhibitory activity against 5-hydroxytryptamine 1 receptor
[5] = target: Serotonin 2 (5-HT2) receptor (Homo sapiens, UniProt P41595+P28223+P28335); assay: Compound was tested for inhibitory activity against 5-hydroxytryptamine 2 receptor; format: protein assay
[6] = target: T3, Alpha-1B adrenergic receptor (Homo sapiens, UniProt P35368); assay: Compound was tested for inhibitory activity against adrenergic alpha-1 receptor
T3 sequence (P35368 whole entry): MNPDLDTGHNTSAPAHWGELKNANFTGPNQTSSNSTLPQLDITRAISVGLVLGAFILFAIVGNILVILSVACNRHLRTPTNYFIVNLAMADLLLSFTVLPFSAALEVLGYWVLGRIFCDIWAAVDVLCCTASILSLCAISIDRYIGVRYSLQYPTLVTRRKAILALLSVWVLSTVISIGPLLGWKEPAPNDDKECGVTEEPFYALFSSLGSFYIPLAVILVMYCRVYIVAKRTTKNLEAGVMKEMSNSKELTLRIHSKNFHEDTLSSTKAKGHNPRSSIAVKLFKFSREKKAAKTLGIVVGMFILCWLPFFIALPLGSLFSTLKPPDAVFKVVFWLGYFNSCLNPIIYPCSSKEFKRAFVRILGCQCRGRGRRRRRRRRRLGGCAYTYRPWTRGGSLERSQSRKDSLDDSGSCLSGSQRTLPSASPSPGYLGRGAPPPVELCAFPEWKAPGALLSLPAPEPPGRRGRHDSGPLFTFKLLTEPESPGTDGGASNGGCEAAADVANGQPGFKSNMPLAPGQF

[7] = target: T4, Alpha-2A adrenergic receptor (Rattus norvegicus, UniProt P22909); assay: Compound was tested for inhibitory activity against adrenergic alpha-2 receptor
T4 sequence (P22909 whole entry): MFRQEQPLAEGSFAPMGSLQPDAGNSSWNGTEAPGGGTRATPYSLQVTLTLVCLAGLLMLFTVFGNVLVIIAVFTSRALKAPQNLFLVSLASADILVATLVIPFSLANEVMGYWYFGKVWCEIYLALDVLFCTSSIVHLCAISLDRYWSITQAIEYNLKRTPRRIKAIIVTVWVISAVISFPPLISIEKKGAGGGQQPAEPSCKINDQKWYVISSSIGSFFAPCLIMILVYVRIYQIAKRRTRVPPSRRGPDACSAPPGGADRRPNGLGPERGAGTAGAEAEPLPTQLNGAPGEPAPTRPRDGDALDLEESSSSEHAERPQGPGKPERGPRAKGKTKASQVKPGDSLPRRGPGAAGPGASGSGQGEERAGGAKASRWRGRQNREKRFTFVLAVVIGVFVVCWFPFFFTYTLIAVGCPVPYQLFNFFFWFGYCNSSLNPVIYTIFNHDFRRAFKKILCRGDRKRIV

Adrenergic receptor beta = Adrenergic receptor beta (Homo sapiens, UniProt P08588+P07550+P13945); assay: Compound was tested for inhibitory activity against Beta adrenergic receptor; format: protein assay
D(2) dopamine receptor [8] = target: T2, D(2) dopamine receptor; assay: Compound was tested for inhibitory activity against Dopamine D2 receptor
D(1A) dopamine receptor = D(1A) dopamine receptor (Homo sapiens, UniProt P21728); assay: Compound was tested for inhibitory activity against Dopamine D1 receptor
[9] = target: Muscarinic acetylcholine receptor M3 (Rattus norvegicus, UniProt P08483); assay: Compound was tested for inhibitory activity against Muscarinic acetylcholine receptor
Substance-P receptor = Substance-P receptor (Homo sapiens, UniProt P25103); assay: Compound was tested for inhibitory activity against Tachykinin receptor 1
[10] = target: T5, 5-hydroxytryptamine receptor 3A (Homo sapiens, UniProt P46098); assay: as §1
T5 sequence (P46098 whole entry): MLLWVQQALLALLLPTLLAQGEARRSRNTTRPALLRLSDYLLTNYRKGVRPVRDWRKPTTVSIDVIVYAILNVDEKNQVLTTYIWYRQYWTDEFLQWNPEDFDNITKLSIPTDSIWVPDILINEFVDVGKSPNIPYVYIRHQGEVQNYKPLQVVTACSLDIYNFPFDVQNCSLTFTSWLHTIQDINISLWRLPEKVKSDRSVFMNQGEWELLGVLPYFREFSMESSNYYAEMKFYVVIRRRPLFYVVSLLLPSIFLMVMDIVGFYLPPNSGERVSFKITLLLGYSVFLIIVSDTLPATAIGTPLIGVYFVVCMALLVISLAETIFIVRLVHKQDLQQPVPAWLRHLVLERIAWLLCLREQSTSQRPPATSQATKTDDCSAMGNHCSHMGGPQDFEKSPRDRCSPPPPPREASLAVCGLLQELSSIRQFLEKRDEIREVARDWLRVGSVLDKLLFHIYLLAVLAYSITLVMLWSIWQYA

Sequence of 5-hydroxytryptamine receptor 4 (Q62758 whole entry): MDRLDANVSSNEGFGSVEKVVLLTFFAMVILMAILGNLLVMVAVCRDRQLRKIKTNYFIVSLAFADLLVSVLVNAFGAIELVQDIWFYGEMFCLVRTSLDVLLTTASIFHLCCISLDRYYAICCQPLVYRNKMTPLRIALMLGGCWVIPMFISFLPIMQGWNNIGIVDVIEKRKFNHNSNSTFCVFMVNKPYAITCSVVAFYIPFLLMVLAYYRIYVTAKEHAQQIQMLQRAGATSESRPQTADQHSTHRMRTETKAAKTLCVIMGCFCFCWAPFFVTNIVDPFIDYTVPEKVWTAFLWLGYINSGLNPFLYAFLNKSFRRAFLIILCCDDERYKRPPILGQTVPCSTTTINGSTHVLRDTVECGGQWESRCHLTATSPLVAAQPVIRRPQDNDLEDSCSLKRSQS
T2 sequence (P14416 whole entry): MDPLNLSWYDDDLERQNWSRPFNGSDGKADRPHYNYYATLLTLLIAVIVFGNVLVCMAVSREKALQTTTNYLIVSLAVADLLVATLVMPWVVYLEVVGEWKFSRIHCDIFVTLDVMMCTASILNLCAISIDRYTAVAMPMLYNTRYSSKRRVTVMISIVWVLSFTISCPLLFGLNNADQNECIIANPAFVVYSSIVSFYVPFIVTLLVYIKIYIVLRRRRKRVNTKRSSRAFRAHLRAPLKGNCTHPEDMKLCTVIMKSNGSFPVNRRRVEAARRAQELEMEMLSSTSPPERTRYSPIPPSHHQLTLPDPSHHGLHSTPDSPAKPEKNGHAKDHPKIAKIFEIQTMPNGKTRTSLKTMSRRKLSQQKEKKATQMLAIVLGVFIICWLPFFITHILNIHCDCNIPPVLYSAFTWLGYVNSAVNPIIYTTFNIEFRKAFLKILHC
Sequence of Substance-P receptor (P25103 whole entry): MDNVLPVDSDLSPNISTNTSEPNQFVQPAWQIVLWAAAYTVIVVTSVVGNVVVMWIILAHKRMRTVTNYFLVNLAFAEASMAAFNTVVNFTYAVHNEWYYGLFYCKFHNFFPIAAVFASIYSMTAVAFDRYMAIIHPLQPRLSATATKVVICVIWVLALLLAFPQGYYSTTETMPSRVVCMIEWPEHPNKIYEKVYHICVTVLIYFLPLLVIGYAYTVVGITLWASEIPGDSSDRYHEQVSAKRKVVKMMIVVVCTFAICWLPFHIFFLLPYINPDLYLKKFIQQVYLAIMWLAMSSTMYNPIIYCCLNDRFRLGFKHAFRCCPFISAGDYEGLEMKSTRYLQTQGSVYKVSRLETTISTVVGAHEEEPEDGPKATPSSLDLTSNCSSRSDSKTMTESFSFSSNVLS
Sequence of D(1A) dopamine receptor (P21728 whole entry): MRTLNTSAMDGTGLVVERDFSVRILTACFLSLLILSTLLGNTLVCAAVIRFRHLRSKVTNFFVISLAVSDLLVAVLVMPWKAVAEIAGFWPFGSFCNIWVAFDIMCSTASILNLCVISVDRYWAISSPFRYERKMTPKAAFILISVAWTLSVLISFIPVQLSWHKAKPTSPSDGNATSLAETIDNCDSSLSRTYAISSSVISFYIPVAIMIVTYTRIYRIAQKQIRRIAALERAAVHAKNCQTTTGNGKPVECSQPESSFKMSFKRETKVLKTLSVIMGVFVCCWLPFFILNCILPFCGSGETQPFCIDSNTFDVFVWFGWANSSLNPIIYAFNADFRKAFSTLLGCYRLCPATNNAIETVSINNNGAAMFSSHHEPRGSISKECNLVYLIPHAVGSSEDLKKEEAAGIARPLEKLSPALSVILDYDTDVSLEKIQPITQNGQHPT
Sequence of Muscarinic acetylcholine receptor M3 (P08483 whole entry): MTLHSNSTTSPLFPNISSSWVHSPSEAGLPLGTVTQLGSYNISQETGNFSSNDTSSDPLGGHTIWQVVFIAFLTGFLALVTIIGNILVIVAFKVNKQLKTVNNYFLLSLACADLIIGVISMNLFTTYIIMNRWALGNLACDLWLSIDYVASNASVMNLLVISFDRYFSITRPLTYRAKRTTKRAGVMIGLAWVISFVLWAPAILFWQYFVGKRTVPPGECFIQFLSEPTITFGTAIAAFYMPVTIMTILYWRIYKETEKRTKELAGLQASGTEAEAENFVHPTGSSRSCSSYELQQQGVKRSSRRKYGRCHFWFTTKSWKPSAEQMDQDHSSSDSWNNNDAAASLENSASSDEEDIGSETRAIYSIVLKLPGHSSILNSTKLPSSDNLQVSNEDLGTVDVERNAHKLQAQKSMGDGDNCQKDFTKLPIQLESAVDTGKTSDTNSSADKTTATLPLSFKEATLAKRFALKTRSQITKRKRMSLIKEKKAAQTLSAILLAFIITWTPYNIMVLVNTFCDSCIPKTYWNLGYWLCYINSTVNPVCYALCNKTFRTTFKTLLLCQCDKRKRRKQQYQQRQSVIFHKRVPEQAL

COc1cc(N)c(Cl)cc1C(=O)NCC12CC3CN(CC3C1)C2
Ki [1]: 0.005 µM | IC50 (D(2) dopamine receptor [2]): > 10 µM | inhibition in vivo at 1 mg/kg (Mus musculus): 70%

COc1cc(NC(C)=O)c(Cl)cc1C(=O)NC1C2CC3CC1CN3C2 (configuration not stated)
EC50 [3]: > 10 µM

COc1cc(N)c(Cl)cc1C(=O)NCCC12CC3CN(CC3C1)C2
EC50 [3]: 1.66 µM

COc1cc(NC(C)=O)c(Cl)cc1C(=O)NCC1C2CC3CC1CN3C2 (configuration not stated)
EC50 [3]: > 10 µM

COc1cc(N)c(Cl)cc1C(=O)NC1C2CC3CN(C2)CC31.Cl (configuration not stated)
IC50 [4]: > 10 µM | IC50 [5]: > 10 µM | IC50 [6]: > 10 µM | IC50 [7]: > 10 µM | IC50 (Adrenergic receptor beta): > 10 µM | IC50 (D(2) dopamine receptor [8]): > 10 µM | IC50 (D(1A) dopamine receptor): > 10 µM | IC50 [9]: > 10 µM | EC50 [3]: 0.051 µM | IC50 (Substance-P receptor): > 10 µM | Ki [10]: 0.0012 µM
